The test system of data set [1] is M. tuberculosis inside the host macrophage. In words: QIM: Quantification of Intracellular Mycobacteria (intracellular growth assay, phenotypic cell-based). The settings on record: Mycobacterium tuberculosis; MIC, 80% bacterial growth inhibition; intracellular growth; read-out: QIM. The method, boiled down: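 Dose-response testing of intracellular mycobacterial replication in infected macrophages, a cell-based screening format; MIC is defined as the lowest concentration achieving 80% inhibition of bacterial growth.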

Data set [2] concerns in vitro grown Mycobacteria (M. tuberculosis). In words: QUM: Quantification of in vitro grown Mycobacteria (in vitro growth fluorescence assay). The note with it: Mycobacterium tuberculosis; MIC, 80% bacterial growth inhibition; in vitro growth; read-out: QUM. The class given is cell-based. Put shortly:
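Mycobacterium tuberculosis grown in vitro was quantified by fluorescence across compound dose responses. MIC is defined as the minimum concentration producing 80% growth inhibition.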

The subject of data set [3] is M. tuberculosis drug sensitive strain (lab strain H37Rv). Nature of the data set: MIC by the Alamar blue method, drug sensitive strain. Format: cell-based. The settings on record: Mycobacterium tuberculosis.
The test system of data set [4] is Mycobacterium tuberculosis H37Rv. Nature of the data set: Kinetics of inhibition and bactericidal activity (CFU plating). Format: cell-based. The note with it: for colony forming unit (CFU) number (bactericidal activity): after incubation with various concentrations; for growth inhibition: reached around the same time as PA-824, 14 day period. As to the method:
Mycobacterium tuberculosis H37Rv was incubated at an initial inoculum of 2×10^6 bacteria/ml in Middlebrook 7H9 media containing an increasing concentration of representative compound 47 or 54. Culture samples were collected over a 14 day period. Serial dilutions of the bacterial suspension were performed and plated on 7H 10 medium. Colonies were counted for the different dilutions after 3 weeks incubation at 37° C. under 5% CO2 and compared to that obtained for the DMSO negative and PA-824 positive controls. PA-824 (Stover et al., 2000) is a TB Alliance small chemical compound currently in phase II clinical trials for the treatment of tuberculosis. PA-824 possibly acts via generation of radicals having non-specific toxic effects.

Another data set relates to M. tuberculosis H37Rv. In words: In vivo activity in a murine model of acute tuberculosis infection. More on the design: species or system BalbC mice. The note with it: 4 weeks of treatment. Here is the method: The effect of compounds 177 and 185 on the bacterial load of TB-infected mice was compared to that of the reference compound Isoniazid (INH). 8-week old female BalbC mice were infected with 6×10^5 M. tuberculosis H37Rv via intranasal instillation. Mice were sacrificed at day 1 to control the number of CFU in the lungs. In the acute model of infection, mice were treated for 4 weeks, starting at day 1. Compounds were freshly dissolved in a 0.5% methylcellulose solution and administered by oral gavage 5 times/week. Bacterial load was assessed in lungs and spleen after homogenizing the organs in 1×PBS. Serial dilutions of organs homogenates were spread on Middlebrook 7H11 plates and CFU were determined after 3 weeks incubation at 37° C. under 5% CO2.

The MIC80 is the lowest concentration that inhibits either 80% of growth or 80% of the strains tested, depending on the study. For orientation: melting point means the temperature of the solid-liquid transition.

SMILES strings stand for the structures. In brackets after ≈: the same amount, converted by molar mass. Structures can show the parent of a compound that is named as a salt. Where only a bound is given, the exact number is not on record here.

For `CCc1nc2ccccn2c1C(=O)NCc1ccc(Oc2ccccc2)cc1` [Compound 54, 2-Ethyl-N-(4-phenoxybenzyl)imidazo[1,2-a]pyridine-3-carboxamide], the MIC in data set [1] and in data set [2] was less than 1 µM throughout. Besides, in data set [3], the MIC80 was 0.625 µM (≈ 0.232 µg/mL). Also, the “colony forming unit (CFU) number (bactericidal activity)” value in data set [4] was “decrease”. Also, the growth inhibition in data set [4] is 100%.
`CCc1nc2ccc(Cl)cn2c1C(=O)NCc1ccc(Oc2ccc(OC(F)(F)F)cc2)cc1` [Compound 185, 6-Chloro-2-ethyl-N-(4-(4-(trifluoromethoxy)phenoxy)benzyl)imidazo[1,2-a]pyridine-3-carboxamide]: in the data set on M. tuberculosis H37Rv (50 mg/kg orally), the “CFU in the spleen” value was “No CFU were detected”. Besides, the “reduction of CFU in the lungs compared to untreated mice” value in the data set with M. tuberculosis H37Rv (50 mg/kg orally) is roughly 2 log CFU. The MIC in data set [1] and in data set [2] was less than 1 µM throughout.
Consider `CCc1nc2ccccn2c1C(=O)NCc1ccc(-c2ccccc2)cc1` [Compound 47, N-(Biphenyl-4-ylmethyl)-2-ethylimidazo[1,2-a]pyridine-3-carboxamide], for which the MIC in data set [1] was less than 1 µM. Besides, the MIC in data set [2] is less than 1 µM. This molecule registered an MIC80 in data set [3] of 1.25 µM (≈ 0.444 µg/mL). In data set [4], the “colony forming unit (CFU) number (bactericidal activity)” value is given as “decrease” and the growth inhibition came out at 100%.
On to `CCc1nc2cc(Cl)ccn2c1C(=O)NCc1ccc(N2CCN(c3ccc(F)cc3)CC2)cc1` [Compound 177, 7-Chloro-2-ethyl-N-(4-(4-(4-fluorophenyl)piperazin-1-yl)benzyl)imidazo[1,2-a]pyridine-3-carboxamide trihydrochloride], for which, in the data set on M. tuberculosis H37Rv (50 mg/kg orally), the “CFU in the spleen” value is “No CFU were detected” and the “reduction of CFU in the lungs compared to untreated mice” value is listed as roughly 2 log CFU.
In turn, `CCc1nc2ccc(Cl)cn2c1C(=O)NCc1ccc(N2CCC(c3ccc(F)cc3)CC2)cc1` [Compound 286, 6-Chloro-2-ethyl-N-(4-(4-(4-fluorophenyl)piperidin-1-yl)benzyl)imidazo[1,2-a]pyridine-3-carboxamide] showed a melting point of 164 °C. The MIC in data set [1] is less than 1 µM. The MIC in data set [2] is less than 1 µM.
Consider `CCc1nc2cc(N3CCN(c4ccccc4)CC3)ccn2c1C(=O)NCc1ccc(C(F)(F)F)cc1` [Compound 330, 2-Ethyl-7-(4-phenylpiperazin-1-yl)-N-(4-(trifluoromethyl)benzyl)imidazo[1,2-a]pyridine-3-carboxamide], for which the melting point is 235.2 °C. In data set [1], the MIC was less than 1 µM. In data set [2], the MIC was greater than 20 µM.
Taken in the same sequence, the figures for `CCc1nc2ccc(Cl)cn2c1C(=O)NCc1ccc(Oc2ccc(F)cc2)cc1` [Compound 187, 6-Chloro-2-ethyl-N-(4-(4-fluorophenoxy)benzyl)imidazo[1,2-a]pyridine-3-carboxamide] were 168 to 169 °C, less than 1 µM and less than 1 µM.
Taken in the same sequence, the figures for `CCc1nc2ccc(Cl)cn2c1C(=O)OCc1ccc(-c2ccccc2)cc1` [Compound 161, [1,1′-Biphenyl]-4-ylmethyl 6-chloro-2-ethylimidazo[1,2-a]pyridine-3-carboxylate] were 122.3 to 123 °C, less than 1 µM and less than 1 µM.
The like results for `CCc1nc2cc(Cl)ccn2c1C(=O)NCc1ccc(N2CCC(COc3ccc(F)cc3)CC2)cc1` [Compound 297, 7-Chloro-2-ethyl-N-(4-(4-((4-fluorophenoxy)methyl)piperidin-1-yl)benzyl)imidazo[1,2-a]pyridine-3-carboxamide] were, in that order, 186.5 °C, less than 1 µM and less than 1 µM.
Take `CCc1nc2cc(Cl)ccn2c1C(=O)NCc1ccc(Oc2ccc(F)cc2)nc1` [Compound 193, 7-Chloro-2-ethyl-N-((6-(4-fluorophenoxy)pyridin-3-yl)methyl)imidazo[1,2-a]pyridine-3-carboxamide]: the melting point was 167 to 167.6 °C. Further, in data set [1], the MIC is less than 1 µM. Moreover, the MIC in data set [2] was less than 1 µM.
Molecule `CCc1nc2cc(Cl)ccn2c1C(=O)NCc1ccc(N2CCC(COC)CC2)cc1` [Compound 282, 7-Chloro-2-ethyl-N-(4-(4-(methoxymethyl)piperidin-1-yl)benzyl)imidazo[1,2-a]pyridine-3-carboxamide] had a melting point of 172.5 °C. Also, in data set [1], the MIC was less than 1 µM. Further, the MIC in data set [2] was less than 1 µM.
On to `CCc1nc2cc(N3CCN(Cc4ccc(F)cc4)CC3)ccn2c1C(=O)NCc1ccc(N2CCOCC2)cc1` [Compound 331, 2-Ethyl-7-(4-(4-fluorobenzyl)piperazin-1-yl)-N-(4-morpholinobenzyl)imidazo[1,2-a]pyridine-3-carboxamide], for which the melting point is 212.5 °C. For the same molecule, in data set [1], the MIC was greater than 20 µM. In addition, the MIC in data set [2] is greater than 20 µM.
The molecule `CCc1nc2cc(-c3cccnc3)ccn2c1C(=O)NCc1ccc(N2CCOCC2)cc1` [Compound 326, 2-Ethyl-N-(4-morpholinobenzyl)-7-(pyridin-3-yl)imidazo[1,2-a]pyridine-3-carboxamide] gave a melting point of 208.5 °C. The MIC in data set [1] is greater than 20 µM. Besides, the MIC in data set [2] is greater than 20 µM.
In data set [3], `COc1c(N2C[C@@H]3CCCN[C@@H]3C2)c(F)cc2c(=O)c(C(=O)O)cn(C3CC3)c12` [MFX, moxifloxacin, reference compound] registered an MIC80 of 1.25 µM (≈ 0.502 µg/mL). This lies in the single-digit micromolar range.
Consider `CCc1nc2ccc(Cl)cn2c1C(=O)NCC1CCN(Cc2ccc(OC(F)(F)F)cc2)CC1` [Compound 226, 6-Chloro-2-ethyl-N-((1-(4-(trifluoromethoxy)benzyl)piperidin-4-yl)methyl)imidazo[1,2-a]pyridine-3-carboxamide], for which the melting point is 171 to 172 °C. The MIC in data set [1] is less than 1 µM. Further, in data set [2], the MIC is less than 1 µM.
Molecule `CCc1nc2c[n+]([O-])ccn2c1C(=O)NCc1ccc(-c2ccc(Cl)cc2)cc1` [Compound 160, 3-(((4′-Chloro-[1,1′-biphenyl]-4-yl)methyl)carbamoyl)-2-ethylimidazo[1,2-a]pyrazine 7-oxide] displayed a melting point of 238 °C. In data set [1], the MIC was greater than 20 µM. Besides, in data set [2], the MIC was greater than 20 µM.
In the case of `NNC(=O)c1ccncc1` [INH, Isoniazid, reference compound], in the data set with M. tuberculosis H37Rv (25 mg/kg), the “CFU in the lungs” value is reported as “No CFU were recovered” and the “CFU in the spleen” value was “No CFU were recovered”. In addition, in data set [3], the MIC80 came to 1.25 µM (≈ 0.171 µg/mL).
For the molecule `CCc1nc2ccc(Cl)cn2c1C(=O)NCc1ccc(N2CCC(COc3ccc(F)cc3)CC2)cc1` [Compound 296, 6-Chloro-2-ethyl-N-(4-(4-((4-fluorophenoxy)methyl)piperidin-1-yl)benzyl)imidazo[1,2-a]pyridine-3-carboxamide], the melting point was 171 °C. Further, the MIC in data set [1] is less than 1 µM. Also, the MIC in data set [2] was less than 1 µM.

These data come from US8865734B2 (priority 2010, dated 2014).
